Reference: PubChem BioAssay (NCI)
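Where inhibition never reached the appropriate level, the endpoint shown equals the highest concentration tested. Otherwise, values were interpolated linearly from a five-concentration, 48-hour dose response in 96-well plates. GI50 is the concentration that inhibits growth by half. TGI: concentration producing complete growth inhibition.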

Columns and labels:
Assay in all cases: growth of human tumour cells (NCI), 48 h
UO-31 renal = system: UO-31 renal
HS 578T breast = system: HS 578T breast
UACC-257 melanoma = system: UACC-257 melanoma
HCT-116 colon = system: HCT-116 colon
SNB-19 CNS = system: SNB-19 CNS
SK-MEL-28 melanoma = system: SK-MEL-28 melanoma
NCI-H23 lung = system: NCI-H23 lung
M14 melanoma = system: M14 melanoma
K-562 leukemia = system: K-562 leukemia
SN12C renal = system: SN12C renal

Row | SMILES | GI50 (UO-31 renal) [µM] | TGI (UO-31 renal) [µM] | GI50 (HS 578T breast) [µM] | TGI (HS 578T breast) [µM] | GI50 (UACC-257 melanoma) [µM] | TGI (UACC-257 melanoma) [µM] | GI50 (HCT-116 colon) [µM] | TGI (HCT-116 colon) [µM] | GI50 (SNB-19 CNS) [µM] | TGI (SNB-19 CNS) [µM] | GI50 (SK-MEL-28 melanoma) [µM] | TGI (SK-MEL-28 melanoma) [µM] | GI50 (NCI-H23 lung) [µM] | TGI (NCI-H23 lung) [µM] | GI50 (M14 melanoma) [µM] | TGI (M14 melanoma) [µM] | GI50 (K-562 leukemia) [µM] | TGI (K-562 leukemia) [µM] | GI50 (SN12C renal) [µM] | TGI (SN12C renal) [µM]
1 | CC(=O)Oc1cc(C)ccc1[C@]1(C)CC[C@H](C)/C1=C\Br | 8.43 | 34 | 3.03 | 13.9 | 8.28 | 20.8 | 4.44 | 18.8 | 3.97 | 17.4 | 3.62 | 15.6 | 6.54 | 20.3 | 6.31 | 19.6 | 3.71 | 11.4 | 9.24 | 25.3
2 | CN(C)CCNc1nc2ccccc2c2c1c1c(n2Cc2ccccc2)-c2ccccc2C1=O | 14.3 | 35.4 | 11.3 | 31.5 | 19.9 | 42.6 | 4.67 | 25.2 | 16.4 | 33.8 | 16.8 | 32.3 | 14.8 | 39.7 | 18.6 | 40.7 | 3.89 | 21.2 | 12.6 | 27.5
3 | O=C1c2cc(Br)ccc2-c2c1c1ccc([N+](=O)[O-])cc1c(=O)n2CCCCl | 0.0577 | 3.43 | 19.5 | > 72.5 | 0.287 | 2.85 | 1.05 | 5.94 | < 0.01 | 7.19 | 1.61 | > 100 | 1.54 | 8.04 | 0.534 | 1.78 | < 0.0495 | > 43.7 | 0.0347 | 2.2
4 | Cc1nn(C(=O)c2ccccc2O)c2c1C(c1ccccc1)SC(N)=N2 (configuration not stated) |  |  |  | > 10 |  | > 10 |  | > 10 |  | > 10 |  | > 10 |  | > 10 |  | > 10 |  | 4.76 |  | > 10
5 | COc1ccc(/C=C/c2cc(OC)c(OC)c(OC)c2)cc1NC(=O)/C=C/c1ccc(F)cc1 | 2.3 | > 100 | 3.79 | > 100 | 3.02 | > 100 | 3.98 | > 100 | 4.37 | > 100 | 5.04 | > 100 | 3.41 | > 100 | 2.81 | > 100 | 1.44 | > 100 | 5.56 | > 100
6 | COc1cc2nc(-c3ccc(C(F)(F)F)cc3)cc(OCCCN3CCOCC3)c2cc1OC | 1.77 | 7.3 | 2.25 | 9.24 | 1.67 | 5.68 | 0.583 | 13.5 | 2.91 | 13.6 | 1.44 | 3.27 | 2.36 | 12 | 0.355 | 1.55 | 1.18 | 15.9 | 0.675 | 19.7
7 | Nc1nc(-c2cccc([N+](=O)[O-])c2)c(Br)c(=O)[nH]1 |  | > 100 |  | > 100 |  | > 71.4 |  | > 100 |  | > 73 |  | > 100 |  | > 100 |  | > 64.2 |  | > 100 |  | > 100
8 | CC1=CSC2=NC(c3ccc(Cl)c(Cl)c3)=CC(c3ccc(Cl)cc3)N12 (configuration not stated) | > 100 | > 100 | > 100 | > 100 | > 100 | > 100 | > 100 | > 100 | > 100 | > 100 | > 100 | > 100 | > 100 | > 100 | > 100 | > 100 | > 100 | > 100 | > 100 | > 100
9 | Cc1c(CCCl)c(=O)n2c([nH]c3ccccc32)c1C#N |  | 3.51 |  | 4.89 |  | 8.04 |  | 1.93 |  |  |  | 3.72 |  | 3.49 |  | 2.99 |  | > 10 |  | 2.66
10 | COc1cc(-c2cnn(C)c2)ccc1Nc1ncc2ccnc(N[C@@H](C)C(C)(C)C)c2n1 | > 100 | > 100 | > 79 | > 100 | > 100 | > 100 | 0.467 | > 100 | > 82.3 | > 100 | > 100 | > 100 | > 53.7 | > 100 | > 63.8 | > 100 | > 72.8 | > 100 | > 100 | > 100
11 | COc1cc([C@H](C)c2ccc3ccccc3c2)cc(OC)c1OC | 0.665 | > 100 | 0.303 | > 100 | 1.97 | 44 |  |  | 0.601 | > 100 | 5.25 | > 100 | 0.696 | > 100 | 0.197 | > 100 | 0.0411 | > 100 | 1.08 | > 100
12 | Cc1cc(S(=O)(=O)Nc2nc(N)nc(N3N=CCC3C)n2)c(S)cc1Cl (configuration not stated) |  | > 10 |  | > 10 |  | > 10 |  | > 10 |  | > 10 |  | > 10 |  | > 10 |  | > 10 |  | > 10 |  | > 10
13 | CCCCNc1nc(NC(C)(C)C)nc(NC(C)(C)C)n1 | 7.41 | > 100 | 21.1 | > 100 | 81.3 | > 100 | 2.44 | 29.6 | 17.6 | > 100 | 30 | > 100 | 5.89 | > 100 | 15.7 | > 100 | 6.46 | > 100 | 3.1 | > 100
14 | O=c1ccn(C2OC(CO)C(O)C2O)c(=O)[nH]1 (configuration not stated) |  |  | > 1000 | > 1000 |  | > 1000 | > 1000 | > 1000 | > 1000 | > 1000 | > 1000 | > 1000 | > 1000 | > 1000 |  | > 1000 | > 1000 | > 1000 | > 1000 | > 1000
